Activity calls are given as the source filed them. No cut-off for these calls is given here.
Tests used:
[1] = Cytotoxicity against CD-1 mouse peritoneal macrophages assessed as survival rate at 0.1 uM after 48 hrs by SRB assay; format: cell-based, Peritoneal macrophage cell; conditions: read-out: Activity
[2] = Cytotoxicity against CD-1 mouse peritoneal macrophages assessed as survival rate at 1 uM after 48 hrs by SRB assay; format: cell-based, Peritoneal macrophage cell; conditions: read-out: Activity
[3] = Cytotoxicity against CD-1 mouse peritoneal macrophages assessed as survival rate at 10 uM after 48 hrs by SRB assay; format: cell-based, Peritoneal macrophage cell; conditions: read-out: Activity
[4] = Cytotoxicity against CD-1 mouse peritoneal macrophages assessed as survival rate at 100 uM after 48 hrs by SRB assay; format: cell-based, Peritoneal macrophage cell; conditions: read-out: Activity
[5] = target: T1, Nitric oxide synthase, inducible (Mus musculus, UniProt P29477); experiment: Inhibition of mouse recombinant iNOS activity assessed as conversion of [14C]-L-arginine to [14C]-L-citrulline by liquid scintillation counting
T1 sequence (P29477 whole entry): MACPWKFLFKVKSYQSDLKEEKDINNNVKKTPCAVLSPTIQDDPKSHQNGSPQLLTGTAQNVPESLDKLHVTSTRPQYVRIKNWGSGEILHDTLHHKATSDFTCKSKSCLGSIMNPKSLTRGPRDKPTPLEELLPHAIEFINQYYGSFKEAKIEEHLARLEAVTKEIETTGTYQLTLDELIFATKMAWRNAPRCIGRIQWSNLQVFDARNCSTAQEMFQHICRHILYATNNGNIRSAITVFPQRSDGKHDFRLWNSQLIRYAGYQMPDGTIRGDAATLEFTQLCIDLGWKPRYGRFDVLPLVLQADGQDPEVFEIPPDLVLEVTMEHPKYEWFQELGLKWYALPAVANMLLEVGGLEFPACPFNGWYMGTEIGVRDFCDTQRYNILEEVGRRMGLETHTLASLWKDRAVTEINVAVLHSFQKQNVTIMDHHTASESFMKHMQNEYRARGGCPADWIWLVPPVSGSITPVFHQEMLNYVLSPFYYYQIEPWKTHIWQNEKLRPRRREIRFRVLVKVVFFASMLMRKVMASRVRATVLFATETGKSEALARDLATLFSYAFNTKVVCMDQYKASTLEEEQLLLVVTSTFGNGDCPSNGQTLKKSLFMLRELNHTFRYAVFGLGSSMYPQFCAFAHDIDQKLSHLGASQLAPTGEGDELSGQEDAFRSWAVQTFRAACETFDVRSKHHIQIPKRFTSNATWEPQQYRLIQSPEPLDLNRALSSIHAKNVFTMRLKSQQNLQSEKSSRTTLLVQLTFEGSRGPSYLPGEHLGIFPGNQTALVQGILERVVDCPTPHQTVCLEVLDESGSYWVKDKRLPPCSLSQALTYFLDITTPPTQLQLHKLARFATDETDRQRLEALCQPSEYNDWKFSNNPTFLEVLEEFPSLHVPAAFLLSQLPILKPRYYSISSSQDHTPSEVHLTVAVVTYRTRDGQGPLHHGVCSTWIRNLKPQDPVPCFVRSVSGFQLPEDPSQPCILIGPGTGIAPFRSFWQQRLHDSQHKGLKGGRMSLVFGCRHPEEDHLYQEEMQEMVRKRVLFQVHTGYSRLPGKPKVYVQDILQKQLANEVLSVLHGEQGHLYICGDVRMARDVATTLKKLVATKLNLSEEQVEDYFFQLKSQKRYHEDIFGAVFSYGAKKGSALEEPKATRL

[6] = target: Nitric oxide synthase, inducible (Rattus norvegicus, UniProt Q06518); experiment: Inhibition of rat iNOS
Chain of Nitric oxide synthase, inducible (Rattus norvegicus, UniProt Q06518) (Q06518 whole entry): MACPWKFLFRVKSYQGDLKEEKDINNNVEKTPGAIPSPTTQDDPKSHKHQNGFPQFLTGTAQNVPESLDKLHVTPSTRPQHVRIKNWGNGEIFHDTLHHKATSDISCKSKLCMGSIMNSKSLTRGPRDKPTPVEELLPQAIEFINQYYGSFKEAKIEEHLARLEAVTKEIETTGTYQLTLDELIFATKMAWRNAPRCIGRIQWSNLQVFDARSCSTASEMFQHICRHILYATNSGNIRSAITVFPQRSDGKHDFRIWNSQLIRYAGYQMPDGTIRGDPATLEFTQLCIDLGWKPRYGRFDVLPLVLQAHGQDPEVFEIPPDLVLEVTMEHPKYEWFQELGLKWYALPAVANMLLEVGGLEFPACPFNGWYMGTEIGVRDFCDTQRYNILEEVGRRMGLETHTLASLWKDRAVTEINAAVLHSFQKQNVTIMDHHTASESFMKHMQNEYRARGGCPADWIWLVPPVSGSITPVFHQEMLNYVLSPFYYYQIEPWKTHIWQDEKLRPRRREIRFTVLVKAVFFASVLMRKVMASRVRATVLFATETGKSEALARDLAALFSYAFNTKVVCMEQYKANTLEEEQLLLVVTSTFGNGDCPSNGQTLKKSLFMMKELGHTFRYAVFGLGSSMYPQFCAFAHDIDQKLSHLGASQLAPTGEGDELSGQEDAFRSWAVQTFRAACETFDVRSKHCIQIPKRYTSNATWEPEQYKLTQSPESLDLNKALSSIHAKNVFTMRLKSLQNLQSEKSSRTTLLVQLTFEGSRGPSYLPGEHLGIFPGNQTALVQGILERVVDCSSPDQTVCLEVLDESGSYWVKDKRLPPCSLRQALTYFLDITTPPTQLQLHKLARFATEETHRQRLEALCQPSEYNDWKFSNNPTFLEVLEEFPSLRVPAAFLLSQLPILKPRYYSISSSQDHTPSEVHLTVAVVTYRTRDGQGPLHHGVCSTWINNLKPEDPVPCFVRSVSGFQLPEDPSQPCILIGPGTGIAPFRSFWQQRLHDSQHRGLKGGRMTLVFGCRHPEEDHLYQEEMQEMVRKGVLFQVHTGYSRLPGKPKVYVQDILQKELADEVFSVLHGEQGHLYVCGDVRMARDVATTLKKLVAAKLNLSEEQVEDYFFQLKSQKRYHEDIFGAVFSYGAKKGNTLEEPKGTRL

[7] = target: Nitric oxide synthase, inducible (Homo sapiens, UniProt P35228); experiment: Inhibition of human iNOS
Chain of Nitric oxide synthase, inducible (Homo sapiens, UniProt P35228) (P35228 whole entry): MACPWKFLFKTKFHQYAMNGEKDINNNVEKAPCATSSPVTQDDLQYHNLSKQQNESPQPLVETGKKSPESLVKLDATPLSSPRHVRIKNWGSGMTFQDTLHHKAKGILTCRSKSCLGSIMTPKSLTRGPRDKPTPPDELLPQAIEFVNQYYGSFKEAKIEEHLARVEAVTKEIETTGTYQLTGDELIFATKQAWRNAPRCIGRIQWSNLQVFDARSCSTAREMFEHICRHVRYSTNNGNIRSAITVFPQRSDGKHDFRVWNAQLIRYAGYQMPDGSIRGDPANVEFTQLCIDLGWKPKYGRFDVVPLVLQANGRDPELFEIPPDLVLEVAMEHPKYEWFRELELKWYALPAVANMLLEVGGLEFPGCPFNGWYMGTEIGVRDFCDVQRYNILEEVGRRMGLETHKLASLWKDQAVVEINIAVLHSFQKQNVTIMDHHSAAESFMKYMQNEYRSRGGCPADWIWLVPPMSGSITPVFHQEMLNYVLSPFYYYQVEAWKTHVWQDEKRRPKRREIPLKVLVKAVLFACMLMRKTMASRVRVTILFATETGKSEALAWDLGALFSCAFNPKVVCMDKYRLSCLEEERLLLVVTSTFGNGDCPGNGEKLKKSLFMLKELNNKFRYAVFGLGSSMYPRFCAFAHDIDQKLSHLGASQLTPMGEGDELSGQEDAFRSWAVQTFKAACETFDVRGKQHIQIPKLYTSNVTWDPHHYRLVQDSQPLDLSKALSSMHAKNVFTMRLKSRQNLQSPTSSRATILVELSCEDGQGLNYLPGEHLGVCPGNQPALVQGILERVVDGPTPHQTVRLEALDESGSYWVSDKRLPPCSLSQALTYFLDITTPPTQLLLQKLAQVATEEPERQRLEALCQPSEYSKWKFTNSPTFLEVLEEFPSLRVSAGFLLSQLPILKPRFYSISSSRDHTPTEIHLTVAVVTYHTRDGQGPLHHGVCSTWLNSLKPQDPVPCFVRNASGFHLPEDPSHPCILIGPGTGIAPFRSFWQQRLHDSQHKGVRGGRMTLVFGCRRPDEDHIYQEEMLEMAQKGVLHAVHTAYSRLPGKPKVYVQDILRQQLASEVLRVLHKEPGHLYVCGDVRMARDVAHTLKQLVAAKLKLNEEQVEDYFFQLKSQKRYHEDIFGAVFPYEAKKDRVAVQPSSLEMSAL

[8] = test system: Peritoneal macrophage cell; experiment: Inhibition of LPS/INFgamma-induced nitric oxide production in CD-1 mouse peritoneal macrophages after 48 hrs by Griess reaction; conditions: CD-1, Peritoneal macrophage cell
[9] = test system: Mus musculus; experiment: Neuroprotective activity in permanent middle cerebral artery occlusion model of CD-1 mouse brain assessed as reduction of infarct volume administered subcutaneously by using Alzet mini-osmotic pumps for 21 days before and 48 hrs after pMCAO by TTC staining; format: functional, organism-based

C[C@H]1CC(=N)N[C@@H]2[C@H](Cl)[C@@H]21 gave a viability at 48 h, 0.1 µM [1] of 98.4%, a viability at 48 h, 1 µM [2] of 93.6% and a viability at 48 h, 10 µM [3] of 99.1%. For the same compound, the viability at 48 h, 100 µM [4] was 97.2%, the IC50 [5] was 11 nM and the Ki [6] was 1.8 nM. For the same compound, the Ki [7] was 1.8 nM.
For C[C@H]1CC(N)=N[C@@H]2[C@H](Cl)[C@@H]21, the IC50 [8] was 820 nM and the Activity [9] was “Active”.

— ChEMBL document CHEMBL2040724, “New synthesis and promising neuroprotective role in experimental ischemic stroke of ONO-1714” (Eur J Med Chem, 2012)
